Results on three compounds are retold here after patent US20250144078A1, “THIOSTREPTON-INSPIRED COMPOUNDS FOR TREATMENT OF CANCER AND PREPARATION THEREOF” (RS Oncology, llc, priority 2022, published 2025).

The test system of data set [1] is HMESO mesothelioma cells. In words: Cell viability study (crystal violet) in HMESO mesothelioma cells. The data set is classed as cell-based. The following applies: Homo sapiens, 48 h incubation, read-out: IC50 (Concentration of drug required to kill 50% of cells). On the procedure: (§1) FIG. 1: Cell viability assay data in Malignant Mesothelioma (MM) cells (HMESO cell line) treated with compound (1)-HCl or (5)-HCl. N=2 technical and 2 biological replicates conducted by 2 different lab technicians. All compounds went into solution in 100% DMSO. (5)-HCl precipitated at concentrations of ˜20-80 μM when added to complete tissue culture media.
Cell Lines were plated in 96-well plates (Corning, Kennebunk, ME, USA) at a density of 2500 cells per well. The following day, cells were treated with test compounds diluted in complete media followed by incubation for 48 h. Post-incubation cells were washed with PBS (Corning Cellgro, Manassas, VA, USA), fixed with 3.0% formaldehyde (Fisher BioReagents, Fair Lawn, NJ, USA) in PBS, and stained for 30 min with 0.1% crystal violet (Acros Organics, Fair Lawn, NJ, USA) in water. Crystal violet stain was removed, and plates were washed with H2O and allowed to dry. To quantify cell viability, plates were imaged using the Lionheart Plate reader (BioTek Instruments, Winooski, VT, USA) and/or analyzed by absorbance at 540 nm (crystal violet dye dissolved in 100% methanol) using the Synergy HTX plate reader (BioTek Instruments, Winooski, VT, USA). […]

The target of data set [2] is T1, PRX3 (Homo sapiens, UniProt P30048).
T1 construct: endogenous in cells; host or cells: H-MESO (HMESO) malignant mesothelioma cell line
T1 sequence (P30048 62-256): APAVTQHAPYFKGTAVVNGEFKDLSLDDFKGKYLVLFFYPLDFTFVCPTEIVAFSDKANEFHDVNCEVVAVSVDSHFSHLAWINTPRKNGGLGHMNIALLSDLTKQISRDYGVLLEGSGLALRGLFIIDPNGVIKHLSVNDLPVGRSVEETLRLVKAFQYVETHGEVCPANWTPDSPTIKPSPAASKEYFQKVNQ
In words: PRX3 crosslinking study (western blot) in Malignant Mesothelioma cells. The settings on record: H-MESO cells treated 24 hours, reducing SDS-PAGE, anti-PRX3 western blot; TS at 2.5 or 5 μM. The class given is cell-based. The protocol: Malignant Mesothelioma (MM) cells (H-MESO cell line) were plated into 6-well plates in complete tissue culture media. Cells were allowed to adhere for 24 hours before being treated with indicated concentrations of thiostrepton (TS), (1) or (5) (DMSO Stocks) for 24 hours. Cell lysates were generated using standard RIPA buffer, protein concentrations were determined using a Bradford Assay and 20 μg of total protein per sample were separated by reducing SDS-Polyacrylamide Gel Electrophoresis. Proteins were transferred to a PVDF membrane, blocked with 5% Bovine Serum Albumin (BSA) for 1 hour and incubated with PRX3 primary antibody overnight at 4° C. in 1× Tris Buffered Saline with Tween (TBST). Membranes were washed 3× with 1×TBST and incubated with horseradish peroxidase conjugated (HRP) secondary antibody for 1 hour at room temperature. Membranes were washed 3× in 1×TBST and HRP signal was developed using Enhanced Chemiluminescence and visualized on a GE digital imager.

A short description of data set [3]: Behaviour of compounds in DMSO and in complete tissue culture media. The data set is classed as physicochemical. The following applies: from DMSO stock. On the procedure:
as §1

Counter-ions that a name gives are not always drawn.

Turning to `C=C(NC(=O)C(=C)NC(=O)c1csc(-c2ccc(N)cc2)n1)C(N)=O` [(1)-HCl, N-(3-((3-amino-3-oxoprop-1-en-2-yl)amino)-3-oxoprop-1-en-2-yl)-2-(4-aminophenyl)thiazole-4-carboxamide hydrochloride], the IC50 in data set [1] was determined as 748 µM. The “covalent PRX3 crosslinking (PRX3-X-PRX3)” value in data set [2] is listed as “No PRX3-X-PRX3 crosslinking was observed”.

`C=C(NC(=O)c1csc(-c2ccc(N)cc2)n1)C(=O)NC(=C)C(=O)OC` [(5)-HCl, Methyl 2-(2-(2-(4-aminophenyl)thiazole-4-carboxamido)acrylamido)acrylate hydrochloride]: the “covalent PRX3 crosslinking (PRX3-X-PRX3)” value in data set [2] is “Similar, yet less robust, results”. The “concentrations at which compound precipitated when added to complete tissue culture media” value in data set [3] was 20 to 80 µM.

Consider `C=C(NC(=O)C(=C)NC(=O)c1csc(C2=N[C@@H]3c4csc(n4)[C@H]4NC(=O)c5csc(n5)[C@H]([C@](C)(O)[C@@H](C)O)NC(=O)[C@H]5CSC(=N5)/C(=C/C)NC(=O)[C@H]([C@@H](C)O)NC(=O)c5csc(n5)[C@]3(CC2)NC(=O)[C@H](C)NC(=O)C(=C)NC(=O)[C@H](C)NC(=O)[C@H]([C@@H](C)CC)N[C@@H]2C=Cc3c([C@H](C)O)cc(nc3[C@H]2O)C(=O)O[C@@H]4C)n1)C(N)=O` [TS, thiostrepton], for which, in data set [1], the IC50 was found to be 1.01 µM. In addition, in data set [2], the “covalent PRX3 crosslinking (PRX3-X-PRX3)” value is “resulted in covalent PRX3 crosslinking”.
